The text below walks through data of ChEMBL document CHEMBL5500347, “An update on antibacterial AlkylGuanidino Ureas: Design of new derivatives, synergism with colistin and data analysis of the whole library” (2024).

Holding throughout (format): functional
In one experiment the test system is Bacillus subtilis. In words: Antibacterial activity against Bacillus subtilis ATCC 6633 incubated for 18 to 24 hrs by CLSI based microdilution broth method. The settings on record: time 18-24 hrs. (Broth dilution looks for growth in wells or tubes with falling amounts of substance.)
Another experiment concerns Enterococcus faecalis. In words: Antibacterial activity against Enterococcus faecalis ATCC 19433 incubated for 18 to 24 hrs by CLSI based microdilution broth method. The settings on record: time 18-24 hrs.
The next experiment relates to Streptococcus pyogenes. In words: Antibacterial activity against Streptococcus pyogenes ATCC 12344 incubated for 18 to 24 hrs by CLSI based microdilution broth method. Particulars: time 18-24 hrs.
In a further experiment the test system is Staphylococcus aureus. In words: Antibacterial activity against Staphylococcus aureus ATCC 25923 incubated for 18 to 24 hrs by CLSI based microdilution broth method. Particulars: time 18-24 hrs.
A further experiment has as its system Escherichia coli. In words: Antibacterial activity against Escherichia coli CCUGT incubated for 18 to 24 hrs by CLSI based microdilution broth method. Particulars: Escherichia coli, CCUGT; time 18-24 hrs; read-out: MIC.
Another experiment relates to Klebsiella pneumoniae. In words: Antibacterial activity against Klebsiella pneumoniae ATCC 13833 incubated for 18 to 24 hrs by CLSI based microdilution broth method. The settings on record: Klebsiella pneumoniae, ATCC 13833; time 18-24 hrs; read-out: MIC.
Another experiment has as its system Acinetobacter baumannii. In words: Antibacterial activity against Acinetobacter baumannii ATCC 17978 incubated for 18 to 24 hrs by CLSI based microdilution broth method. Particulars: Acinetobacter baumannii, ATCC 17978; time 18-24 hrs.
The subject of the next experiment is Pseudomonas aeruginosa. In words: Antibacterial activity against Pseudomonas aeruginosa ATCC 27853 incubated for 18 to 24 hrs by CLSI based microdilution broth method. Particulars: Pseudomonas aeruginosa, ATCC 27853; time 18-24 hrs.

Turning to `N=C(N)NCCCCCCCCCN(CCCCCCCCCNC(=N)NCC1CC1)C(=O)N(CCCCCCCCCNC(=N)N)CCCCCCCCCNC(=N)NCC1CC1.O=C(O)C(F)(F)F`, the MIC – broadly, the least concentration at which growth counts as inhibited – against Bacillus subtilis worked out at 4 µg/mL; in the experiment with Enterococcus faecalis, 4 µg/mL; in the experiment on Streptococcus pyogenes, 2 µg/mL; against Staphylococcus aureus it was 4 µg/mL; with Escherichia coli, 8 µg/mL; with Klebsiella pneumoniae, 16 µg/mL. Further, the MIC was determined as 8 µg/mL in the experiment with Acinetobacter baumannii and 16 µg/mL in the experiment on Pseudomonas aeruginosa.
For `CC(C)CNC(=N)NCCCCCCCCN(CCCCCCCCNC(=N)N)C(=O)N(CCCCCCCCNC(=N)N)CCCCCCCCNC(=N)NCC(C)C.O=C(O)C(F)(F)F`, the MIC against Bacillus subtilis turned out to be 2 µg/mL; in the experiment on Enterococcus faecalis, 4 µg/mL; against Streptococcus pyogenes, 4 µg/mL; against Staphylococcus aureus, 2 µg/mL; in the experiment with Escherichia coli it was 4 µg/mL; in the experiment with Klebsiella pneumoniae, 4 µg/mL. The MIC against Acinetobacter baumannii came to 8 µg/mL; in the experiment with Pseudomonas aeruginosa, 16 µg/mL.
Regarding `N=C(N)NCCCCCCCN(CCCCCCCNC(=N)NCC1CC1)C(=O)N(CCCCCCNC(=N)N)CCCCCCNC(=N)NCC1CC1.O=C(O)C(F)(F)F`, the MIC against Bacillus subtilis was found to be 2 µg/mL; against Enterococcus faecalis it was 4 µg/mL; against Streptococcus pyogenes, 4 µg/mL; in the experiment on Staphylococcus aureus, 1 µg/mL; with Escherichia coli, 16 µg/mL; in the experiment on Klebsiella pneumoniae, 8 µg/mL. Also, the MIC in the experiment on Acinetobacter baumannii and in the experiment with Pseudomonas aeruginosa was 32 µg/mL throughout.
Regarding `N=C(N)NCCCCCCCCN(CCCCCCCCNC(=N)NCCC12CC3CC(CC(C3)C1)C2)C(=O)N(CCCCCCCCNC(=N)N)CCCCCCCCNC(=N)NCCC12CC3CC(CC(C3)C1)C2.O=C(O)C(F)(F)F`, the MIC against Bacillus subtilis was found to be 16 µg/mL; in the experiment with Enterococcus faecalis, 16 µg/mL; against Streptococcus pyogenes, 16 µg/mL; with Staphylococcus aureus it was 8 µg/mL; in the experiment on Escherichia coli it was 32 µg/mL; in the experiment on Klebsiella pneumoniae, 32 µg/mL. Moreover, the results for the MIC in the experiment on Acinetobacter baumannii and in the experiment on Pseudomonas aeruginosa were 64 µg/mL and 128 µg/mL, respectively.
As for `CC(C)=CCC/C(C)=C/CNC(=N)NCCCCCCCCN(CCCCCCCCNC(=N)N)C(=O)N(CCCCCCCCNC(=N)N)CCCCCCCCNC(=N)NC/C=C(\C)CCC=C(C)C.O=C(O)C(F)(F)F`, the MIC in the experiment on Bacillus subtilis turned out to be 2 µg/mL; in the experiment on Enterococcus faecalis it was 2 µg/mL; in the experiment with Streptococcus pyogenes, 2 µg/mL; in the experiment on Staphylococcus aureus, 1 µg/mL; in the experiment on Escherichia coli, 2 µg/mL; with Klebsiella pneumoniae, 2 µg/mL. In addition, the MIC is 4 µg/mL against Acinetobacter baumannii and 8 µg/mL in the experiment with Pseudomonas aeruginosa.
For `N=C(N)NCCCCCCCCN(CCCCCCCCNC(=N)NCC1CC1)C(=O)N(CCCCCCCCNC(=N)NCC1CC1)CCCCCCNC(=N)N.O=C(O)C(F)(F)F`, the MIC came to 0.5 µg/mL against Bacillus subtilis; 1 µg/mL in the experiment with Enterococcus faecalis; 0.5 µg/mL in the experiment on Streptococcus pyogenes; 0.25 µg/mL against Staphylococcus aureus; 1 µg/mL in the experiment with Escherichia coli; 1 µg/mL with Klebsiella pneumoniae. Further, the MIC against Acinetobacter baumannii and against Pseudomonas aeruginosa was 16 µg/mL throughout.
On to `COCCNC(=N)NCCCCCCCCN(CCCCCCCCNC(=N)N)C(=O)N(CCCCCCCCNC(=N)N)CCCCCCCCNC(=N)NCCOC.O=C(O)C(F)(F)F`, for which the MIC was found to be 0.5 µg/mL in the experiment on Bacillus subtilis; 1 µg/mL with Enterococcus faecalis; 0.5 µg/mL in the experiment on Streptococcus pyogenes; 0.5 µg/mL in the experiment on Staphylococcus aureus; 1 µg/mL in the experiment on Escherichia coli; 2 µg/mL in the experiment on Klebsiella pneumoniae. Besides, the MIC against Acinetobacter baumannii was determined as 8 µg/mL; with Pseudomonas aeruginosa, 16 µg/mL.
As to `N=C(N)NCCCCCCCCN(CCCCCCCCNC(=N)NCCN1CCOCC1)C(=O)N(CCCCCCCCNC(=N)N)CCCCCCCCNC(=N)NCCN1CCOCC1.O=C(O)C(F)(F)F`, the MIC in the experiment on Bacillus subtilis amounted to 1 µg/mL; in the experiment with Enterococcus faecalis it was 2 µg/mL; in the experiment on Streptococcus pyogenes it was 1 µg/mL; against Staphylococcus aureus it was 1 µg/mL; in the experiment on Escherichia coli it was 4 µg/mL; with Klebsiella pneumoniae it was 4 µg/mL. Moreover, the MIC against Acinetobacter baumannii came out at 32 µg/mL; against Pseudomonas aeruginosa it was 64 µg/mL.
Regarding `CC(C)NC(=N)NCCCCCCCCN(CCCCCCCCNC(=N)N)C(=O)N(CCCCCCCCNC(=N)N)CCCCCCCCNC(=N)NC(C)C.O=C(O)C(F)(F)F`, the MIC against Bacillus subtilis was found to be 0.5 µg/mL; with Enterococcus faecalis, 0.5 µg/mL; against Streptococcus pyogenes it was 0.5 µg/mL; with Staphylococcus aureus, 0.25 µg/mL; in the experiment on Escherichia coli it was 0.5 µg/mL; in the experiment on Klebsiella pneumoniae, 1 µg/mL. The MIC in the experiment on Acinetobacter baumannii and in the experiment on Pseudomonas aeruginosa was 8 µg/mL each time.
With `N=C(N)NCCCCCCCCN(CCCCCCNC(=N)NCC1CC1)C(=O)N(CCCCCCCCNC(=N)N)CCCCCCNC(=N)NCC1CC1.O=C(O)C(F)(F)F`, the MIC in the experiment on Bacillus subtilis came to 1 µg/mL; against Enterococcus faecalis it was 8 µg/mL; in the experiment on Streptococcus pyogenes, 1 µg/mL; against Staphylococcus aureus, 0.25 µg/mL; with Escherichia coli, 4 µg/mL; with Klebsiella pneumoniae, 4 µg/mL. Also, the MIC in the experiment with Acinetobacter baumannii was 64 µg/mL; in the experiment on Pseudomonas aeruginosa, 128 µg/mL.
Turning to `O=C(O)C(F)(F)F.[N-]=[N+]=NCCCCCCCCN(CCCCCCCCNC(=N)NCC1CC1)C(=O)N(CCCCCCCCN=[N+]=[N-])CCCCCCCCNC(=N)NCC1CC1`, the MIC is 32 µg/mL with Bacillus subtilis; 8 µg/mL in the experiment with Enterococcus faecalis; 8 µg/mL in the experiment on Streptococcus pyogenes; 4 µg/mL in the experiment with Staphylococcus aureus; 16 µg/mL in the experiment on Escherichia coli; 16 µg/mL in the experiment with Klebsiella pneumoniae. Further, the MIC came out at 64 µg/mL in the experiment with Acinetobacter baumannii and 128 µg/mL against Pseudomonas aeruginosa.
As to `CCCNC(=N)NCCCCCCCCN(CCCCCCCCNC(=N)N)C(=O)N(CCCCCCCCNC(=N)N)CCCCCCCCNC(=N)NCCC.O=C(O)C(F)(F)F`, the MIC came to 1 µg/mL in the experiment with Bacillus subtilis; 1 µg/mL with Enterococcus faecalis; 1 µg/mL against Streptococcus pyogenes; 0.5 µg/mL in the experiment with Staphylococcus aureus; 0.5 µg/mL in the experiment with Escherichia coli; 1 µg/mL with Klebsiella pneumoniae. Also, the MIC in the experiment with Acinetobacter baumannii and in the experiment on Pseudomonas aeruginosa was 8 µg/mL throughout.
For the molecule `N=C(N)NCCCCCCN(CCCCCCCCNC(=N)NCC1CC1)C(=O)N(CCCCCCCCNC(=N)NCC1CC1)CCCCCCNC(=N)N.O=C(O)C(F)(F)F`, the MIC against Bacillus subtilis is 1 µg/mL; with Enterococcus faecalis it was 4 µg/mL; against Streptococcus pyogenes it was 1 µg/mL; in the experiment with Staphylococcus aureus, 0.25 µg/mL; in the experiment on Escherichia coli, 2 µg/mL; in the experiment with Klebsiella pneumoniae, 2 µg/mL. Also, the MIC in the experiment on Acinetobacter baumannii and in the experiment on Pseudomonas aeruginosa was 32 µg/mL each time.
For the molecule `N=C(N)NCCCCCCCCN(CCCCCCCCNC(=N)NCC1CC1)C(=O)N(CCCCCCCCNC(=N)N)CCCCCCNC(=N)NCC1CC1.O=C(O)C(F)(F)F`, the MIC came to 4 µg/mL against Bacillus subtilis; 4 µg/mL against Enterococcus faecalis; 4 µg/mL against Streptococcus pyogenes; 1 µg/mL against Staphylococcus aureus; 8 µg/mL with Escherichia coli; 4 µg/mL with Klebsiella pneumoniae. Further, the values for the MIC against Acinetobacter baumannii and against Pseudomonas aeruginosa were 64 µg/mL and 128 µg/mL, respectively.
Regarding `C/C=C/CNC(=N)NCCCCCCCCN(CCCCCCCCNC(=N)N)C(=O)N(CCCCCCCCNC(=N)N)CCCCCCCCNC(=N)NC/C=C/C.O=C(O)C(F)(F)F`, the MIC in the experiment with Bacillus subtilis was determined as 2 µg/mL; in the experiment on Enterococcus faecalis it was 2 µg/mL; against Streptococcus pyogenes it was 2 µg/mL; in the experiment with Staphylococcus aureus, 1 µg/mL; in the experiment with Escherichia coli it was 2 µg/mL; with Klebsiella pneumoniae it was 2 µg/mL. Besides, the minimal inhibitory concentration (MIC) against Acinetobacter baumannii worked out at 8 µg/mL; against Pseudomonas aeruginosa, 16 µg/mL.
For the molecule `CSCCNC(=N)NCCCCCCCCN(CCCCCCCCNC(=N)N)C(=O)N(CCCCCCCCNC(=N)N)CCCCCCCCNC(=N)NCCSC.O=C(O)C(F)(F)F`, the MIC against Bacillus subtilis stood at 1 µg/mL; in the experiment on Enterococcus faecalis, 2 µg/mL; in the experiment with Streptococcus pyogenes, 1 µg/mL; against Staphylococcus aureus, 0.5 µg/mL; in the experiment on Escherichia coli it was 2 µg/mL; in the experiment with Klebsiella pneumoniae it was 4 µg/mL. In addition, the figures for the MIC against Acinetobacter baumannii and with Pseudomonas aeruginosa were 16 µg/mL and 32 µg/mL, respectively.
